Test results as given in publication PMC10672842, “Anti-Trypanosoma cruzi Activity, Mutagenicity, Hepatocytotoxicity and Nitroreductase Enzyme Evaluation of 3-Nitrotriazole, 2-Nitroimidazole and Triazole Derivatives” (Molecules, 2023).
Where two headings read alike, the source gives them in different places.

Legend:
[1] = system: T. cruzi (Tulahuen strain); experiment: In vitro anti-T. cruzi evaluation in an intracellular model (trypomastigote and amastigote forms, L929 host cells, β-galactosidase readout); format: cell-based, Trypanosoma cruzi; conditions: for IC50: Trypanosoma cruzi, TULAHUEN, L929, 96 h, read-out: IC50 T. cruzi; for SI: selectivity index, L929 cells vs T. cruzi
Procedure: Derivatives 5–10 were evaluated in vitro against T. cruzi in an intracellular model on the trypomastigote and amastigote forms of the parasite of the Tulahuen strain [20]. This model is interesting because it mimics the life cycle of the parasite, as both clinically relevant forms are present in the environment. The mammalian host cells used were fibroblasts from L929 mice.
This assay was performed as previously described by Buckner et al. (1996) using T. cruzi (Tulahuen strain), which expresses the β-galactosidase gene of Escherichia coli. Infectious trypomastigote forms were obtained by culturing fibroblast monolayers of L929 mice in RPMI-1640 medium (pH 7.2–7.4) without phenol red (Gibco BRL), containing 10% fetal bovine serum and 2 mM glutamine. For the bioassay, 4000 L929 cells in 80 µL of supplemented medium were added to each well of a 96-well microtiter plate. After overnight incubation, 40,000 trypomastigotes in 20 µL were added to the cells and incubated for 2 h. […] The medium was then replaced with compound solutions at 1.0 µg/mL in fresh medium (200 µL), and the plate was incubated for 96 h at 37 °C. After this period, 50 µL of chlorophenol D-galactopyranoside red (500 µM) in 0.5% Nonidet P40 was added to each well, and the plate was incubated for 18 h at 37 °C. After this, the absorbance was measured at 570 nm. Controls with uninfected cells and infected cells treated with benznidazole were performed in parallel. The results are expressed as the percentage of T. cruzi growth inhibition in cells tested with compost compared to infected and untreated cells. The tests were performed in triplicate.

in vitro = format: cell-based; conditions: human
Procedure: The Lactate Desidrogenase (LDH) Cytotoxicity Detection Kit^PLUS and the Cell Proliferation Reagent WST-1 assays were performed according to the manufacturer’s protocols. The human hepatocellular carcinoma cell line HepG2 was cultured in T25/175 cm^2 flasks with Dulbecco’s modified Eagle’s medium (DMEM, Gibco BRL) supplemented with 10% fetal bovine serum, 3.7 g/L sodium bicarbonate and 100 µg/mL penicillin–streptomycin under standard conditions (37 ± 1 °C, 95% relative humidity and 5% CO2). Cells were split using trypsin-EDTA (0.05%) with phenol red solution (Gibco BRL) and seeded in a 96-well flat-bottomed plate at a density of 1 × 10^4 cells/well. After overnight incubation, the cells were washed with 1X PBS, and the medium was replaced with different compound dilutions (0–5000 µM) in fresh medium (100 µL) followed by 24 h of incubation. DMSO 1% was used as the negative control, and Triton X-100 4% was used as the positive control. For the LDH assay, after treatment, 50 µL of supernatant from each well was transferred to a 96-well flat-bottomed plate, and 50 µL of freshly prepared reaction mixture was added to each well. After 10 min of incubation in the dark at room temperature, 25 µL of stop solution was added to each well, and the absorbance was measured at 492 nm on a microplate reader (Polaris, Celer, MG, Brazil). For the WST-1 assay, after exposure, the supernatant was replaced by 100 µL of WST-1 2% in fresh medium and incubated for 3 h in the dark under standard conditions. The absorbance was measured at 440 nm. […] For cytotoxicity assays, significant differences between the groups were analyzed by one-way ANOVA and Tukey’s post hoc tests (p < 0.01).

[2] = In vitro cytotoxicity of L929 cells (AlamarBlue); format: cell-based, mice; conditions: mouse, four days
Procedure: For this bioassay, 4000 mammalian cells in 200 µL of RPMI-1640 medium (pH 7.2–7.4) (Gibco BRL) plus 10% fetal bovine serum and 2 mM glutamine were added to each well of a 96-well microtiter plate, which was incubated for three days at 37 °C. […] After this period, 20 µL of AlamarBlue^TM was added to each well, and the plate was incubated for another 4–6 h. Then, the absorbance was measured at 570 nm. Controls with cells not treated and treated with benznidazole were performed in parallel, and triplicates were performed on the same plate. The results are expressed as the percent difference in the reduction between treated (CT) and untreated cells (UT) using the following equation:(1) 117.216Abs570 TC−80.586(Abs600 TC)/117.216Abs570 UT−80.586(Abs600 UT) × 100

[3] = Tulahuen strain, intracellular trypomastigote and amastigote forms in L929 fibroblasts, 96 h

In the case of `O=[N+]([O-])c1nccn1CC(O)c1ccc(F)cc1F` (centres unmarked) [Compound 9, 1-(2,4-Difluorophenyl)-2-(2-nitro-1H-imidazol-1-yl)ethanol], the IC50 [1, 3] is reported as 3.05 ± 0.07 µM, the “times more potent against T. cruzi than 6” value ([1]; ratio of IC50 T. cruzi to 2-nitroimidazole ketone 6) is reported as “approximately 30” and the SI [1] is reported as greater than 131. The CC50 at 24 h (in vitro) was greater than 500 µM, the CC50 at 48 h (in vitro) was greater than 500 µM and the CC50 at 72 h (in vitro) was greater than 500 µM. It also gave a CC50 at 4 days [2] greater than 400 µM.

For `O=[N+]([O-])c1ncn(CC(O)c2ccc(F)cc2F)n1` (centres unmarked) [Compound 8, 1-(2,4-Difluorophenyl)-2-(3-nitro-1H-1,2,4-triazol-1-yl)ethanol], the IC50 [1, 3] was 0.39 ± 0.01 µM, the “times more potent against T. cruzi than 9” value ([1]; ratio of IC50 T. cruzi to 2-nitroimidazole 9) was “approximately 8” and the “fold more potent against T. cruzi than BZN” value ([1]; ratio of IC50 T. cruzi to BZN) was roughly 4. For the same compound, the “times more potent against T. cruzi than 5” value ([1]; ratio of IC50 T. cruzi to carbonyl counterpart 5) was “more than 4”, the “times more potent against T. cruzi than 10” value ([1]; ratio of IC50 T. cruzi to triazole 10) was “more than 300” and the “fold more selective than BZN” value ([1]; ratio of selectivity index to BZN) was 2. It also gave an SI [1] of 3077, a CC50 at 24 h (in vitro) greater than 500 µM and a CC50 at 48 h (in vitro) of 426 ± 66 µM. The CC50 at 4 days [2] was 1200 ± 0.01 µM.

With `O=C(Cn1ccnc1[N+](=O)[O-])NCc1ccccc1` [BZN, benznidazole, reference compound] the IC50 [1] was 1.5 ± 0.4 µM, the SI [1] was 1409 and the CC50 at 24 h (in vitro) was greater than 500 µM. For the same compound, the CC50 at 48 h (in vitro) was greater than 500 µM, the CC50 at 72 h (in vitro) was greater than 500 µM and the CC50 at 4 days [2] was 2110 ± 270 µM.
